From patent US20130116287A1 (priority 2010, published 2013)
Read-outs that look alike come from different tables or passages of the source.

Columns and labels:
[1] = system: Plasmopara viticola; experiment: Plasmopara test (grapevines) / preventive; assay type: in vivo; conditions: 100 ppm of active ingredient, evaluated 6 days after inoculation, 100% = no disease
Protocol: Plasmopara Test (Grapevines)/Preventive
Solvent: 24.5 parts by weight of acetone
24.5 parts by weight of dimethylacetamide
Emulsifier: 1 part by weight of alkylaryl polyglycol ether
To produce a suitable preparation of active compound, 1 part by weight of active compound is mixed with the stated amounts of solvent and emulsifier, and the concentrate is diluted with water to the desired concentration.
To test for preventive activity, young plants are sprayed with the preparation of active compound at the stated rate of application. After the spray coating has dried on, the plants are inoculated with an aqueous spore suspension of Plasmopara viticola and then remain for 1 day in an incubation cabinet at approximately 20° C. and a relative atmospheric humidity of 100%. The plant is subsequently placed for 4 days in a greenhouse at approximately 21° C. and a relative atmospheric humidity of approximately 90%. The plants are then misted and placed for 1 day in an incubation cabinet.
The test is evaluated 6 days after the inoculation. 0% means an efficacy which corresponds to that of the untreated control, while an efficacy of 100% means that no disease is observed.

[2] = Measurement of logP values by HPLC on reversed phase columns (EEC directive 79/831 Annex V.A8); assay type: physicochemical; conditions: for Log P: HPLC, pH 2.7, 0.1% formic acid in water / acetonitrile, single value
[3] = system: Phytophthora infestans; assay type: in vivo; conditions: 500 ppm of active ingredient; tomato, preventive; evaluated 7 days after inoculation; 100% = no disease

| SMILES | efficacy [1] [%] | Log P [2] | efficacy [3] [%] | chromatographic logP ([2]; pH 2.7, HPLC, pH 2.7, 0.1% formic acid, main isomer, read-out: Log P [I1] main isomer) | chromatographic logP ([2]; pH 2.7, HPLC, pH 2.7, 0.1% formic acid, minor isomer, read-out: Log P [I2] minor isomer) | chromatographic logP ([2]; reversed phase HPLC columns, pH 2.7, mixture of Z and E diastereoisomers, preparation example 1, read-out: logP(HCOOH)) |
| --- | --- | --- | --- | --- | --- | --- |
| Cc1snnc1C(=NOCc1csc(NC(=O)COCC2CCC2)n1)c1ccccc1 [Example 53] | 95 | 4.11 | 97 |  |  |  |
| Cc1snnc1C(=NOCc1csc(NC(=O)COC2CCCCC2)n1)c1ccccc1 [Example 59, 2-(cyclohexyloxy)-N-{4-[({[(5-methyl-1,2,3-thiadiazol-4-yl)(phenyl)methylene]amino}oxy)methyl]-1,3-thiazol-2-yl}acetamide] | 75 |  | 97 | 4.41 | 4.32 | 4.41 |
| Cc1snnc1C(=NOCc1csc(NC(=O)COCC(C)C)n1)c1ccccc1 [Example 63] | 75 | 4.01 | 100 |  |  |  |
| Cc1snnc1C(=NOCc1csc(NC(=O)COC(C)C)n1)c1ccccc1 [Example 65] | 84 | 3.59 | 95 |  |  |  |
